Consider one molecule from patent EP4772530A1, “PEPTIDE TARGETING SOMATOSTATIN RECEPTOR, DRUG CONJUGATE AND USE THEREOF” (Mainline Biosciences (Shanghai) Co., Ltd., priority 2023, dated 2025).

The subject of the experiment is NCI-H69. Description: Cell killing in NCI-H69 by CGT (CellTiter-Glo). The class given is cell-based. Particulars: NCI-H69, 96 h; Inh% relative to DMSO control, 4-parameter fit. How it is done:
Approximately 5 µL of the PDC was added to the corresponding wells of the plate, and compared with DMSO (control, without the PDC of the present application), PTX, MMAE, and Dxd wells. The final concentration of DMSO in each well was 0.2%; • (5) The cells were incubated in a 5% CO2 incubator at 37°C for 96 h; • (6) The cell culture plate was equilibrated to room temperature, and 50 µL of CellTiter-Glo® Reagent was added to each well; • (7) The plate was placed on a shaker for 2 min to ensure complete cell lysis; • (8) After mixing, the plate was placed at room temperature to react for 10 min. The fluorescence value (in RLU) was read when the signal became stable. • c) Data analysis • (1) The inhibition (Inh %) relative to the DMSO control was calculated as follows: Inhibition (Inh%)= 100 -(RLU of compound - RLU of DMSO control)/ (RLU of DMSO control - RLU of blank)*100% • (2) The data were analyzed using Graphpad 5.0 software. A 4-parameter equation was fitted to generate a concentration-response curve to obtain the IC50. Table 3: Test Results of Cell Killing in NCI-H69
In general terms: Cellular ATP, detected with luciferase, serves as a proxy for viable cell number.

As to `CC[C@H](C)[C@@H]([C@@H](CC(=O)N1CCC[C@H]1[C@H](OC)[C@@H](C)C(=O)N[C@H](C)[C@@H](O)c1ccccc1)OC)N(C)C(=O)[C@@H](NC(=O)[C@H](C(C)C)N(C)C(=O)OCc1ccc(NC(=O)[C@H](CCCNC(N)=O)NC(=O)[C@@H](NC(=O)CCCCCN2C(=O)CC(SC[C@H](NC(C)=O)C(=O)NCCOCCOCC(=O)N[C@@H](CCCNC(=N)N)C(=O)N[C@@H](CCCNC(=N)N)C(=O)N[C@@H](CC(C)C)C(=O)N[C@@H](Cc3ccccc3)C(=O)N[C@H]3CSSC[C@@H](C(=O)N[C@H](C(=O)N[C@@H](Cc4c[nH]c5ccccc45)C(=O)N[C@@H](CCCNC(=N)N)C(=O)N[C@@H](CC(=O)O)C(N)=O)[C@@H](C)O)NC(=O)[C@H]([C@@H](C)O)NC(=O)[C@H](CCCCN)NC(=O)[C@@H](Cc4c[nH]c5ccccc45)NC(=O)[C@H](Cc4ccc(O)cc4)NC3=O)C2=O)C(C)C)cc1)C(C)C` (stereo partly drawn) [Example 1, Cys(MC-Val-Cit-PABC-MMAE)-AEEA-Arg-Arg-Leu-Phe-[Cys-Tyr-D-Trp-Lys-Thr-Cys]-Thr-Trp-Arg-Asp-NH2], the “Bottom (Inhibition at Lowest Point)” value worked out at 2.17 and the “Top (Inhibition at Highest Point)” value is listed as 79.37.
